Measurements taken from patent US10772931B2, “Collagen binding synthetic peptidoglycans for treatment of endothelial dysfunction” (Purdue Research Foundation, priority 2014, dated 2020).

Columns and labels:
thrombomodulin [1] = assay: Thrombomodulin production, hyperplastic co-cultures; type: cell-based, human; conditions: PDGF alone
Method: (§1) To better mimic the physiology of the vessel wall and further investigate the effects of therapeutics on ECs in a biologically relevant manner, two EC-SMC co-culture models, designed to mimic either healthy or diseased vasculature, were established. ECs were cultured as stated previously. Human coronary artery smooth muscle cells (SMC, Invitrogen) were cultured in Media 231 (M231, Invitrogen), supplemented with (all from Invitrogen) 4.9% FBS, 2 ng/mL FGF, […], 5 ng/mL heparin, 5 μg/mL insulin, and 0.2 μg/mL bovine serum albumin. SMCs were seeded at 5×10^4 cells/cm^2 in Ibidi angiogenesis μ-slide and allowed to proliferate for 24 hrs to allow the formation of multilayered cell constructs. Media was removed and cultures were treated either with proliferative media, as described above, or contractile media to induce a quiescent phenotype, for 24 hrs. […]
(§2) Following treatment with DS-SILY20 with or without 10 ng/mL PDGF for 24 hrs, cells were washed twice with ice cold PBS and solubilized in lysis buffer (9 M urea, 4% CHAPS, and phosphatase inhibitor cocktail-1 in Millipore water). […] A BCA assay protein kit (Pierce) was used to quantify total protein. […] After washing three times with PBS with 0.05% Tween-20, 2× Read buffer was added to the plate and imaged using a Sector Imager 2400A. Data were analyzed using the MSD Discovery Workbench Software.

E-selectin [2] = assay: E-selectin production, hyperplastic co-cultures; type: cell-based, human; conditions: PDGF alone
Method: as §1, §2

P-selectin [3] = assay: P-selectin production in EC monolayers (Vascular Injury Marker I kit); type: cell-based, human; conditions: PDGF alone
Method: (§3) Human aortic endothelial cells (EC, Invitrogen) were cultured in Media 200 (M200, Invitrogen), supplemented with (all from Invitrogen) 2% fetal bovine serum (FBS), 1 μg/mL hydrocortisone, 10 ng/mL epidermal growth factor (EGF), 3 ng/mL basic fibroblast growth factor (FGF), and 10 μg/mL heparin. Unless otherwise noted, cells were initially seeded at 3×10^5 cells/cm^2 in Ibidi angiogenesis μ-slide (Ibidi) and allowed to proliferate for 24 hrs to establish a confluent monolayer, prior to the application of treatments to the EC cultures. Cells were used between passage numbers 3 and 8 for all assays and maintained at 37° C. with 5% CO2.
(§4) Following treatment with DS-SILY20 with or without 10 ng/mL PDGF for 24 hrs, cells were washed twice with ice cold PBS and solubilized in lysis buffer (9 M urea, 4% CHAPS, and phosphatase inhibitor cocktail-1 in Millipore water). Lysates were processed at 4° C. for 30 mins prior to centrifugation for 20 mins at 18,000×g to remove membrane components. A BCA assay protein kit (Pierce) was used to quantify total protein. […] After washing three times with PBS with 0.05% Tween-20, 2× Read buffer was added to the plate and imaged using a Sector Imager 2400A. Data were analyzed using the MSD Discovery Workbench Software.

P-selectin [4] = assay: P-selectin production, quiescent co-cultures; type: cell-based, human; conditions: PDGF alone
Method: as §1, §2

[5] = tested on: quiescent EC-SMC co-cultures; assay: Metabolic activity (MTS), quiescent EC-SMC co-cultures; type: cell-based, human; conditions: PDGF stimulation alone
Method: as §1
(§5) Cultures were incubated in the presence of 0, 0.01, 0.1, 1, or 10 μM DS-SILY20, with and without 10 ng/mL PDGF, for 24 hrs. The metabolic activity of the cells was determined using the CellTiter 96 AQueous One Solution Cell Proliferation Assay (Promega). […] The media containing MTS was then transferred into a 96-well plate and absorbance at 490 nm was measured.

interleukin-6 (IL-6) [6] = assay: IL-6 expression in EC monolayers (Pro-Inflammatory I kit); type: cell-based, human; conditions: 10 ng/mL PDGF alone, 24 hrs
Method: as §3
Cells were incubated in the presence of DS-SILY20 with or without 10 ng/mL PDGF for 24 hrs. Media was removed from the cultures and a Pro-Inflammatory I kit (Meso Scale Discovery) was used to analyze cytokine production from EC monolayers, hyperplastic co-cultures, and quiescent co-cultures according to manufacturer's instructions. Briefly, plates were warmed to room temperature and incubated with 25 μL of samples and standards for 2 hrs at room temperature with vigorous shaking. […] After washing three times with PBS with 0.05% Tween-20, 2× read buffer was added to the plate and imaged using a Sector Imager 2400A (Meso Scale Discovery). […] Data were analyzed using the MSD Discovery Workbench Software.

interferon-γ (IFN-γ) [7] = assay: IFN-γ production, hyperplastic co-cultures; type: cell-based, human; conditions: 10 ng/mL PDGF alone
Method: as §1
(§6) Cells were incubated in the presence of DS-SILY20 with or without 10 ng/mL PDGF for 24 hrs. […] After washing three times with PBS with 0.05% Tween-20, 2× read buffer was added to the plate and imaged using a Sector Imager 2400A (Meso Scale Discovery). […] Data were analyzed using the MSD Discovery Workbench Software.

E-selectin [8] = assay: E-selectin production in EC monolayers (Vascular Injury Marker I kit); type: cell-based, human; conditions: 10 ng/mL PDGF alone
Method: as §3, §4

[9] = tested on: tumor necrosis factor-α (TNF-α); assay: TNF-α production, quiescent co-cultures; type: cell-based, human; conditions: 10 ng/mL PDGF alone
Method: as §1, §6

ERK-1/2 = ERK-1/2 phosphorylation in EC monolayers; type: cell-based, human; conditions: 10 ng/mL PDGF alone, 10 mins
Method: (§7) The phosphorylation of mitogen-activated protein kinases (MAPK), including extracellular signal-related kinase (ERK) and p38 MAPK (p38), was examined. Cells were incubated in the presence of DS-SILY20 with or without 10 ng/mL PDGF for […] prior to washing with ice cold tris buffered saline (TBS) and solubilized in lysis buffer (150 mM NaCl, 20 mM Tris, 1 mM EDTA, 1 mM EGTA, 1% Triton-X-100, plus protease inhibitors and phosphatase inhibitors). Lysates were processed at 4° C. for 30 mins prior to centrifugation for 20 mins at 18,000×g to remove membrane components. Phospho-p38 (Thr180/Tyr182) and phospho-ERK-1/2 (Thr/Tyr: 202/204; 185/187) levels were evaluated using the MAP Kinase Whole Cell Lysate kit (Meso Scale Discovery); Total p38 and total ERK-1/2 were determined via MAP Kinase (Total Protein) Whole Cell Lysate Kit (Meso Scale Discovery), according to manufacturer's instructions. Briefly, plates were warmed to room temperature and incubated with 25 μL of samples for 3 hrs at room temperature with vigorous shaking. Following gentle rinsing of the wells, the detection antibody was then added and incubated for 1 hr at room temperature with vigorous shaking. After washing three times with TBS, 2× read buffer was added to the plate and imaged using a Sector Imager 2400A. Data were analyzed using the MSD Discovery Workbench Software. […]

P-selectin [10] = assay: P-selectin production, hyperplastic co-cultures; type: cell-based, human; conditions: PDGF alone
Method: as §1, §2

thrombomodulin [11] = assay: Thrombomodulin production, quiescent co-cultures; type: cell-based, human; conditions: PDGF alone
Method: as §1, §2

[12] = tested on: Human aortic endothelial cells (EC); assay: EC migration on collagen (Oris Cell Migration Kit); type: cell-based; conditions: PDGF stimulation alone (10 ng/mL), 48 hrs
Method: Fibrillar collagen was coated in wells of 96-well Oris Cell Migration Kit (Platypus Technologies, Madison). Stoppers were inserted into the plate to block an inner circular portion of the well. ECs were seeded at 5×10^3 cells/well and grown to confluence in the outer portion of the well. After 48 hrs, the stoppers in the wells were removed and ECs were stained with cell tracker green (Invitrogen). To determine the effects of treatments on migration alone, ECs were dosed with 25 μg/mL mitomycin C (Sigma) for 30 mins to inhibit proliferation. Various DS-SILY20 concentrations, solubilized in M200+LSGS, were then incubated on the exposed collagen surface in the inner portion of the well for 15 min at 37° C. Unbound DS-SILY20 was rinsed from the surface and cell media, with or without 10 ng/mL PDGF, was returned to the wells. ECs were allowed to migrate from the outer to the inner portion of the wells for 48 hrs. At 48 hrs, fluorescence measurements of the center of each well were measured using a mask provided with the migration kit such that only the treated inner circular portion of the well was measured.

PDGF receptor β (PDGFRβ) = assay: PDGFRβ phosphorylation in ECs (sandwich ELISA); type: cell-based, human; conditions: EC monolayers, PDGF treatment alone (10 ng/mL)
Method: Cells were incubated in the presence of DS-SILY20 with and without 10 ng/mL PDGF for 60 mins prior to washing with ice cold TBS and […] solubilized in lysis buffer (1% NP-40 Alternative, 20 mM Tris, 137 mM NaCl, 10% glycerol, 2 mM EDTA, 1 mM activated sodium orthovanadate, 10 μg/mL Aprotinin, and 10 μg/mL Leupeptin). Lysates were processed at 4° C. for 30 mins prior to centrifugation for 5 mins at 2000×g to remove membrane components. Sandwich ELISAs (all from R&D systems) were utilized to measure total PDGF receptor β (PDGFRβ) and total phosphotyrosine PDGFRβ. All assays were performed following the manufacturer's protocol.

E-selectin [13] = assay: E-selectin production, quiescent co-cultures; type: cell-based, human; conditions: PDGF alone
Method: as §1, §2

[14] = tested on: Human aortic endothelial cells (EC); assay: Metabolic activity (CellTiter 96 AQueous One, MTS), EC monolayers; type: cell-based; conditions: 10 ng/mL PDGF alone, 24 hrs
Method: as §3
Cultures were incubated in the presence of 0, 0.01, 0.1, 1, or 10 μM DS-SILY20, with and without 10 ng/mL PDGF, for 24 hrs. The metabolic activity of the cells was determined using the CellTiter 96 AQueous One Solution Cell Proliferation Assay (Promega). Briefly, media was mixed with 3-(4,5-dimethylthiazol-2-yl)-5-(3-carboxymethoxyphenyl)-2-(4-sulfophenyl)-2H-tetrazolium, inner salt (MTS) and cultures were re-incubated for 2 hrs at 37° C. with 5% CO2. The media containing MTS was then transferred into a 96-well plate and absorbance at 490 nm was measured.

interleukin-6 (IL-6) [15] = assay: IL-6 production, hyperplastic co-cultures; type: cell-based, human; conditions: 10 ng/mL PDGF alone
Method: as §1, §6

p38 MAPK (p38) = assay: p38 MAPK phosphorylation in EC monolayers; type: cell-based, human; conditions: PDGF alone
Method: as §7

thrombomodulin [16] = assay: Thrombomodulin production in EC monolayers (Vascular Injury Marker I kit); type: cell-based, human; conditions: PDGF alone
Method: as §3, §4

interferon-γ (IFN-γ) [17] = assay: IFN-γ production, quiescent co-cultures; type: cell-based, human; conditions: 10 ng/mL PDGF alone
Method: as §1, §6

[18] = tested on: Human aortic endothelial cells (EC); assay: EC proliferation (Hoescht 33342 nuclei stain); type: cell-based; conditions: PDGF alone (10 ng/mL), 24 hrs
Method: as §3
Cultures were incubated in the presence of DS-SILY20 with or without 10 ng/mL PDGF for 24 hrs. Cells were nuclei stained with Hoescht 33342 and […] to determine the effect of DS-SILY20 and PDGF on cell proliferation.

[19] = tested on: tumor necrosis factor-α (TNF-α); assay: TNF-α production, hyperplastic co-cultures; type: cell-based, human; conditions: 10 ng/mL PDGF alone
Method: as §1, §6

[20] = tested on: hyperplastic EC-SMC co-cultures; assay: Metabolic activity (MTS), hyperplastic EC-SMC co-cultures; type: cell-based, human; conditions: PDGF stimulation alone
Method: as §1, §5

In the case of platelet-derived growth factor [PDGF], the thrombomodulin production (thrombomodulin [1]) is reported as “significantly increased”, the E-selectin expression (E-selectin [2]) is reported as “did not stimulate” and the P-selectin expression (P-selectin [3]) is reported as “induced”. The P-selectin production (P-selectin [4]) was “significantly increased”, the metabolic activity [5] was “not impacted” and the “IL-6 production vs no treatment controls” value (interleukin-6 (IL-6) [6]) was “did not alter”. The “production of IFN-γ vs no treatment controls” value (interferon-γ (IFN-γ) [7]) was “significantly increased”, the “E-selectin production vs no treatment controls” value (E-selectin [8]) was “did not alter” and the “production of TNF-α vs no treatment controls” value [9] was “significantly increased”. For the same substance, the “ERK-1/2 phosphorylation vs no treatment controls” value (ERK-1/2) was “increased”, the P-selectin production (P-selectin [10]) was “significantly increased” and the thrombomodulin production (thrombomodulin [11]) was “significantly increased”. The “enhancement of EC migration” value [12] was 40.3%, the phospho-PDGFRβ levels (PDGF receptor β (PDGFRβ)) was “significantly increased” and the E-selectin expression (E-selectin [13]) was “did not stimulate”. The “metabolic activity of ECs” value [14] was “did not influence”, the “production of IL-6 vs no treatment controls” value (interleukin-6 (IL-6) [15]) was “significantly increased” and the “phosphorylation of p38” value (p38 MAPK (p38)) was “did not alter”. For the same substance, the thrombomodulin expression (thrombomodulin [16]) was “induced”, the “production of IFN-γ vs no treatment controls” value (interferon-γ (IFN-γ) [17]) was “significantly increased” and the EC proliferation [18] was “significantly increased”. For the same substance, the “production of TNF-α vs no treatment controls” value [19] was “significantly increased” and the metabolic activity [20] was “not impacted”.
